Results as given in patent US20130072438A1, “OPIOID PEPTIDE ESTERS AND METHODS OF USE” (The United States Government as represented by the …, priority 2011, published 2013).
Residues, ends and D or L forms follow the SMILES beside them.

Test system: male Wistar rats
Test: Cold immersion tail withdrawal latency after intraperitoneal dosing
Type: in vivo, rat
Settings: for Trial 1 Latency (s), post-treatment cold immersion response / Trial 2 Latency (s), post-treatment cold immersion response / Trial 3 Latency (s), post-treatment cold immersion response: from 30 min post-dose, -20° C bath
Protocol: Three male Wistar rats at 8 weeks of age (Taconic Farms, Germantown, N.Y.) were utilized in the experiment. Each rat was grasped firmly, while the distal half of its tail was immersed in a liquid bath at a temperature of −20° C. Latency periods (in seconds) were measured from the time that tails were immersed to the time that the rat removed its tail from the liquid. Prior to dosing, rats were given three trials, approximately ten minutes apart. […] Post-dose trials were also approximately ten minutes apart. Animals were examined for acute adverse effects to both the cold liquid bath and the test article.

## CCOC(=O)C1CCCN1C(=O)C(N)Cc1ccc(O)cc1 (stereo not drawn) [Tyr-Pro-Ethyl] (H-Tyr-Pro-OEt; configuration not given here)
Animal 1, 1 mg i.p.
  Mean latency of three trials, post-treatment cold immersion response: 15.6 s
  Post-treatment mean with longest latency period eliminated: 12.4
  Trial 1 Latency (s), post-treatment cold immersion response: 13.2 s
  Trial 2 Latency (s), post-treatment cold immersion response: 22.1 s
  Trial 3 Latency (s), post-treatment cold immersion response: 11.5 s
Animal 2, 2 mg i.p.
  Mean latency of three trials, post-treatment cold immersion response: 7.2 s
  Post-treatment mean with longest latency period eliminated: 4.7
  Trial 1 Latency (s), post-treatment cold immersion response: 4.7 s
  Trial 2 Latency (s), post-treatment cold immersion response: 4.7 s
  Trial 3 Latency (s), post-treatment cold immersion response: 12.2 s
Animal 3, 0.5 mg i.p.
  Mean latency of three trials, post-treatment cold immersion response: 7.2167 s
  Post-treatment mean with longest latency period eliminated: 6.3
  Trial 1 Latency (s), post-treatment cold immersion response: 6.45 s
  Trial 2 Latency (s), post-treatment cold immersion response: 6.2 s
  Trial 3 Latency (s), post-treatment cold immersion response: 9.0 s
rats, at the doses given (0.5, 1, 2 mg i.p.), inferred from latency data
  Crossing of the BBB: able to cross the BBB
rats, cerebrospinal fluid, inferred from latency data
  Hydrolysis by esterases: hydrolyzed by esterases in the cerebrospinal fluid
rats, cold immersion, 0.5, 1, 2 mg i.p.
  Effect on sensitivity to noxious stimulus: increase sensitivity to noxious stimulus
